Counter-ions that a name gives are not always drawn.

The target of the first test is Steroidogenic factor 1 (Homo sapiens, UniProt Q13285). Description: blockers of SF-1 LBD reporter transcription – cell-based, CHO-K1, Gal4-SF-1 LBD, luciferase luminescence, dose response (AID 600).
Sequence of Steroidogenic factor 1 (Q13285 whole entry, the tested form may be a part): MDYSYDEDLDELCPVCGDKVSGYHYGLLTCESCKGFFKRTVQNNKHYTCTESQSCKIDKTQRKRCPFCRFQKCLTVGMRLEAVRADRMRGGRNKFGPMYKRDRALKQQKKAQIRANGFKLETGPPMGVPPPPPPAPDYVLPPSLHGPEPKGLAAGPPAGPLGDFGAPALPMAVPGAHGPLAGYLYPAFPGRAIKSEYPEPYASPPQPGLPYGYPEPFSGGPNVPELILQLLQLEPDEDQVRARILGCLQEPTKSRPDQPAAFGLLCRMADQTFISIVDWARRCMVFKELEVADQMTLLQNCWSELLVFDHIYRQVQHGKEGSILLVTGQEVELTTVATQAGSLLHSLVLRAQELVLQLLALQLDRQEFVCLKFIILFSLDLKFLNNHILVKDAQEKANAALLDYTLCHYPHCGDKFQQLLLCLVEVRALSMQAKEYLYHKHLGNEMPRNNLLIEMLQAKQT
Conditions: not given
As usually defined, the IC50 is the concentration at which inhibition is half-maximal. A higher IC50 goes with weaker potency. For the molecule `O=C(c1ccccc1)C(CCC(CN1CCOCC1)C(=O)c1ccccc1)CN1CCOCC1` (stereo unspecified) [2,5-bis(4-morpholinylmethyl)-1,6-diphenylhexane-1,6-dione;hydrochloride], the IC50 stood at 10.6 µM.

In the case of `COc1cccc(-c2nnc(NC(=O)c3ccc(S(=O)(=O)N4CC(C)OC(C)C4)cc3)o2)c1` (stereo unspecified) [4-(2,6-dimethylmorpholin-4-yl)sulfonyl-N-[5-(3-methoxyphenyl)-1,3,4-oxadiazol-2-yl]benzamide], the IC50 is > 3.67 µM.

Regarding `Cc1cnc(NC(=O)CN2CCN(c3ccccn3)CC2)s1` [MLS000035284], the IC50 amounted to 8.52 µM. This counts as single-digit micromolar.

In turn, `Cc1cccc(N2CCN(C(=O)CSCc3c(C)noc3C)CC2)c1C` [2-[(3,5-dimethyl-1,2-oxazol-4-yl)methylsulfanyl]-1-[4-(2,3-dimethylphenyl)piperazin-1-yl]ethanone] registered an IC50 of 0.876 µM.

On to `Cc1ccsc1C(=O)OCC(=O)c1cc(C)n(CC2CCCO2)c1C` (stereo unspecified) [3-methyl-2-thiophenecarboxylic acid [2-[2,5-dimethyl-1-(2-oxolanylmethyl)-3-pyrrolyl]-2-oxoethyl] ester], for which the IC50 is > 0.0453 µM.

The molecule `COc1ccc(-c2cc3nc4n(c(=O)c3s2)CCC4)cc1` [2-(4-methoxyphenyl)-6,7-dihydropyrrolo[1,2-a]thieno[3,2-d]pyrimidin-9(5H)-one] displayed an IC50 of 4.32 µM.

For the molecule `Cc1csc(SCC(=O)c2cc(C)n(Cc3cccs3)c2C)n1` [1-[2,5-dimethyl-1-(2-thenyl)pyrrol-3-yl]-2-[(4-methylthiazol-2-yl)thio]ethanone], the IC50 is > 3.67 µM.

For the molecule `COc1ccc(O)c(C(=O)CC(=O)c2ccc(F)cc2)c1` [1-(4-fluorophenyl)-3-(2-hydroxy-5-methoxy-phenyl)propane-1,3-dione], the IC50 was > 11 µM.

`Cc1ccc(-c2csc3ncnc(Sc4nnc(CN5CCCCCC5=O)o4)c23)cc1` [1-[[5-[5-(4-methylphenyl)thieno[2,3-d]pyrimidin-4-yl]sulfanyl-1,3,4-oxadiazol-2-yl]methyl]azepan-2-one] came in with an IC50 of 5.76 µM. This lies in the single-digit micromolar range.

Molecule `O=C(CSc1nnnn1C1CC2CCC1C2)Nc1ccnc2ccccc12` (stereo unspecified) [2-[(1-bicyclo[2.2.1]hept-2-yl-1H-tetrazol-5-yl)thio]-N-4-quinolinylacetamide] returned a concentration for half-maximal inhibition (IC50) of 0.977 µM.

For the molecule `COc1nc(Nc2nc(O)c3ccccc3n2)nc2ccc(C)cc12` [SMR000108404], the IC50 was 2.1 µM. Compared with the last molecule, the IC50 is about 2.1-fold higher.

For the molecule `Cc1c2ccncc2c(C)c2c1[nH]c1ccccc12` [5,11-dimethyl-2H-pyrido[4,3-b]carbazole], the IC50 is > 3.67 µM.

`O=C(Nc1nc(-c2ccccn2)cs1)c1ccc(Cl)s1` [5-chloranyl-N-(4-pyridin-2-yl-1,3-thiazol-2-yl)thiophene-2-carboxamide]: the IC50 was > 3.67 µM.

`CCCS(=O)(=O)c1nnnn1-c1cccc(OC)c1` [1-(3-methoxyphenyl)-5-(propylsulfonyl)-1H-tetrazole] had an IC50 of 4.96 µM.

With `CCOC(=O)c1c(C)[nH]c(C(=O)C(C)OC(=O)c2cccc(OCc3c(C)noc3C)c2)c1C` (stereo unspecified) [MLS000054923], the IC50 is 8.24 µM.

Consider `CCn1c2ccccc2c2cc(Nc3cc(C)nc4ncnn34)ccc21` [(9-ethylcarbazol-3-yl)-(5-methyl-[1,2,4]triazolo[1,5-a]pyrimidin-7-yl)amine], for which the concentration for half-maximal inhibition (IC50) was determined as 6.19 µM.

The molecule `COC(=O)c1ccc(Oc2cc(C)nc(-n3nc(C)cc3C)n2)cc1` [4-[2-(3,5-dimethylpyrazol-1-yl)-6-methyl-pyrimidin-4-yl]oxybenzoic acid methyl ester] had a half-maximal inhibitory concentration (IC50) of 8.58 µM.

With `O=c1cc(N2CCN(c3ccccc3)CC2)[nH]c(=O)n1C1CCCCC1` [MLS000094382], the midpoint of inhibition, the IC50, lay at 2.99 µM. Against the preceding molecule, the IC50 is about 2.9-fold lower.

For `COCCn1c(C)cc(C(=O)COC(=O)c2[nH]nc3ccccc23)c1C` [SMR000068187], the IC50 was found to be 9.87 µM.

Molecule `C[C@H]1CCCC=CC2C[C@H](O)CC2[C@H](O)C=CC(=O)O1` (stereo partly drawn) [(7S,12R,15S)-12,15-dihydroxy-7-methyl-8-oxabicyclo[11.3.0]hexadeca-2,10-dien-9-one] returned a half-maximal inhibitory concentration (IC50) of 5.61 µM.

For `CC(C)c1ccc2oc(-c3cc(N)ccc3O)nc2c1` [(6E)-4-amino-6-(5-isopropyl-3H-1,3-benzoxazol-2-ylidene)cyclohexa-2,4-dien-1-one], 10.6 µM corresponded to half-maximal inhibition (IC50). Compared with the last molecule, the IC50 is about 1.9-fold higher.

With `Cc1ccc2[nH]c3c(N4CCN(Cc5ccc6c(c5)OCO6)CC4)ncnc3c2c1`, the IC50 is 7.31 µM.

With `Cc1ccc(C(C)C)c(OCCNc2nc3c(c(=O)n(C)c(=O)n3C)n2C)c1` [1,3,7-trimethyl-8-[2-(5-methyl-2-propan-2-yl-phenoxy)ethylamino]purine-2,6-dione], the IC50 was > 99 µM.

For `O=C(Cc1ccc(Cl)cc1)Nc1ccc(-c2nnc(-c3ccco3)o2)cc1` [2-(4-chlorophenyl)-N-[4-[5-(2-furanyl)-1,3,4-oxadiazol-2-yl]phenyl]acetamide], half-maximal inhibition (IC50) required 9.18 µM. That is a single-digit micromolar value.

In turn, `Cc1cc(C(=O)Nc2cccc(C(=O)O)c2)oc1C` [3-[(4,5-dimethyl-2-furoyl)amino]benzoic acid] displayed an IC50 of 3.13 µM.

`O=C(OC1CCOC1=O)c1ccc(-c2nc3ccccc3s2)s1` (stereo unspecified) [(2-oxidanylideneoxolan-3-yl) 5-(1,3-benzothiazol-2-yl)thiophene-2-carboxylate] gave a half-maximal inhibitory concentration (IC50) of 5.75 µM. This IC50 is about 1.8-fold higher than that of the molecule before.

`O=C(NC1=NCCS1)C1COc2ccccc2O1` (stereo unspecified) [MLS000056062] returned an IC50 of 5.24 µM. This IC50 and that of the molecule before are within 1.5-fold of each other.

`COCc1cc(CN2CCCC2)c(O)c2ncccc12` [5-(methoxymethyl)-7-(1-pyrrolidinylmethyl)-8-quinolinol]: half-maximal inhibition (IC50) was put at 4.13 µM.

Regarding `Cc1cccc(-n2ncc3c(N4CCOCC4)ncnc32)c1` [4-[1-(3-methylphenyl)-4-pyrazolo[3,4-d]pyrimidinyl]morpholine], the half-inhibitory concentration (IC50) came to 4.02 µM. This IC50 and that of the molecule before are within 1.5-fold of each other.

Take `COc1cccc(CNC(=O)c2nnn(CC(=O)Nc3ccc(C)c(C)c3)c2N)c1` [5-amino-1-[2-(3,4-dimethylanilino)-2-keto-ethyl]-N-m-anisyl-triazole-4-carboxamide]: the concentration for half-maximal inhibition (IC50) is 8.72 µM.

In turn, `Cn1nc(CC(=O)Nc2ccc(N3CCN(C(=O)OC(C)(C)C)CC3)cc2)c2ccccc2c1=O` [4-[4-[[2-(3-methyl-4-oxo-1-phthalazinyl)-1-oxoethyl]amino]phenyl]-1-piperazinecarboxylic acid tert-butyl ester] gave an IC50 of 2.55 µM. Compared with the last molecule, the IC50 is about 3.4-fold lower.

`CCN1C=CC(=C2C(=O)c3ccccc3C2=O)C=C1` [2-(1-ethyl-4-pyridinylidene)indene-1,3-dione] had a 50% inhibitory concentration (IC50) of 0.954 µM.

Turning to `COc1cccc(N2CCN(c3ncnc4c3[nH]c3ccc(F)cc34)CC2C)c1` (stereo unspecified) [8-fluoranyl-4-[4-(3-methoxyphenyl)-3-methyl-piperazin-1-yl]-5H-pyrimido[5,4-b]indole], half-maximal inhibition (IC50) was put at 2.07 µM.

Regarding `[O-][N+]1=c2ccc(Nc3ccccc3)cc2=NC12CCCCC2` [1-oxido-N-phenyl-5-spiro[benzimidazol-1-ium-2,1'-cyclohexane]amine], it took 6.49 µM to reach half-maximal inhibition (IC50).

On to `CN(C)c1ccc(NC(=S)c2ccccn2)cc1` [MLS000111989], for which the IC50 stood at 2.41 µM.

For the molecule `COc1ccc(-c2nc(CSCC(=O)NCc3ccco3)c(C)o2)cc1` [MLS000089353], the IC50 was 5.87 µM.

The molecule `Nc1nsc2ccccc12` [1,2-benzothiazol-3-amine] had a half-inhibitory concentration (IC50) of 6.84 µM.

With `Oc1c(CN2CCN(c3ccccn3)CC2)cc(Cl)c2cccnc12` [5-chloranyl-7-[(4-pyridin-2-ylpiperazin-1-yl)methyl]quinolin-8-ol], the IC50 came out at 7.6 µM.

`Cc1ccnc(NC(=O)CCCOc2cc(=O)n(C)c3ccccc23)c1` [4-(1-methyl-2-oxidanylidene-quinolin-4-yl)oxy-N-(4-methylpyridin-2-yl)butanamide] returned a concentration for half-maximal inhibition (IC50) of 6.17 µM.

Take `N#CC1C(=N)C(C#N)(C#N)[C@H](c2ccncc2)[C@H]2CN(C(=O)OCc3ccccc3)CC=C12` (stereo partly drawn) [(8S,8aR)-6-amino-5,7,7-tricyano-8-(4-pyridyl)-1,3,8,8a-tetrahydroisoquinoline-2-carboxylic acid benzyl ester]: inhibition was half-maximal at 14.7 µM (IC50).

On to `Cc1cccc(NC(=O)Nc2ccc(C#N)cc2)n1` [1-(4-cyanophenyl)-3-(6-methyl-2-pyridinyl)urea], for which the IC50 was > 1.22 µM.

For `CN1CCN(C(=O)COc2ccc(-c3nc4ccccc4s3)cc2)CC1` [2-[4-(1,3-benzothiazol-2-yl)phenoxy]-1-(4-methyl-1-piperazinyl)ethanone], half-maximal inhibition (IC50) required 7.32 µM.

Molecule `CN(C)c1ccc2c(c1)OC(=N)C(C#N)C2c1cccc(F)c1` (stereo unspecified) [2-amino-7-(dimethylamino)-4-(3-fluorophenyl)-4H-1-benzopyran-3-carbonitrile] had a concentration for half-maximal inhibition (IC50) of 10.9 µM.

Molecule `Cc1cc(C)n(-c2nc(NC(C)C)nc(NC(C)C)n2)n1` [6-(3,5-Dimethyl-pyrazol-1-yl)-N,N'-diisopropyl-[1,3,5]triazine-2,4-diamine] registered an IC50 of 8.33 µM.

`Cc1ccc(-c2nc(-c3ccccn3)no2)cc1` [5-(4-methylphenyl)-3-(2-pyridinyl)-1,2,4-oxadiazole] gave an IC50 of 1.25 µM.

As for `COC(=O)/C(=C1/Oc2cc(C)oc(=O)c2S1)C(F)(F)F` [methyl (2E)-3,3,3-tris(fluoranyl)-2-(6-methyl-4-oxidanylidene-[1,3]oxathiolo[4,5-c]pyran-2-ylidene)propanoate], the IC50 was determined as 4.69 µM.

`COc1ccc(C(=O)Nc2ccc(C)cn2)c(OC)c1` [2,4-dimethoxy-N-(5-methylpyridin-2-yl)benzamide] gave an IC50 of 3.4 µM.

Staying with this test, now noted: inactive by the depositor's call.
`Oc1c(CN2CCCCC2)cc(COCc2ccccc2)c2cccnc12` [5-(benzoxymethyl)-7-(piperidinomethyl)quinolin-8-ol] gave an IC50 of 27.1 µM.

Take `COc1cccc(Cn2c(NCc3ccco3)nc3c2c(=O)n(C)c(=O)n3C)c1` [8-(2-furanylmethylamino)-7-[(3-methoxyphenyl)methyl]-1,3-dimethylpurine-2,6-dione]: half-maximal inhibition (IC50) required 25.4 µM.

Molecule `CC(C)Cn1c(N)c(C(=O)CSc2ccc3c(c2)OCCO3)c(=O)n(C)c1=O` [6-amino-5-[2-(2,3-dihydro-1,4-benzodioxin-6-ylsulfanyl)acetyl]-3-methyl-1-(2-methylpropyl)pyrimidine-2,4-dione] came in with a 50% inhibitory concentration (IC50) of 13.4 µM.

In turn, `Cc1ccccc1S(=O)(=O)Cc1ccc(C(=O)N2CCN(c3cccc(C)c3C)CC2)o1` [1-(2,3-dimethylphenyl)-4-(5-{[(2-methylphenyl)sulfonyl]methyl}-2-furoyl)piperazine] gave an IC50 of 13.4 µM.

These data come from BindingDB's records for doi:10.7270/Q2319T8T (The Scripps Research Institute Molecular Screening Center, 2007).
